One compound from patent publication US10118902B2 (Sanford Burnham Prebys Medical Discovery Institute, priority 2014, dated 2018) can be followed below.

One may read the EC50 as the concentration giving half of the maximal effect.

The structures appear in SMILES notation.

The target of this experiment is neurotensin receptor 1 (NTR1) (Homo sapiens (Human), UniProt P30989). The experiment is described as follows: NTR1 dose response, high-content imaging beta-arrestin-GFP assay in NTR1-U2OS cells. The class given is cell-based. As to conditions: read-out: EC50.
Sequence of neurotensin receptor 1 (NTR1) (P30989 whole entry, species assumed): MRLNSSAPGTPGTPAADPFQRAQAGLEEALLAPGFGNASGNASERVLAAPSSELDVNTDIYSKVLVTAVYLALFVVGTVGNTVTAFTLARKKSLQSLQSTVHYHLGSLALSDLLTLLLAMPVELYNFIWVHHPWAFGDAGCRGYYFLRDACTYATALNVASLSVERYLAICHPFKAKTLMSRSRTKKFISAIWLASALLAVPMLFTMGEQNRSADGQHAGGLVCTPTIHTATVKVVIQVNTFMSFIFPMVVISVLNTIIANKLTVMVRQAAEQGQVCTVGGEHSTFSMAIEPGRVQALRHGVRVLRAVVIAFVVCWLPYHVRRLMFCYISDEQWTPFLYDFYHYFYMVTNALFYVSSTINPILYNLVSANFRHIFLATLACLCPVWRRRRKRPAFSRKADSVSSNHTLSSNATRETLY

With `CN(CCO)c1ccc2nc(C3(F)CC3)nc(N3CCC(c4ccccc4OCCF)CC3)c2c1` [Example 225, 2-[(2-(1-Fluoro-cyclopropyl)-4-{4-[2-(2-fluoro-ethoxy)-phenyl]-piperidin-1-yl}-quinazolin-6-yl)-methyl-amino]-ethanol], the EC50 lay in the range of 500 to 2000 nM.
